Results on 27 compounds are retold here after patent US11548868B2, “Heterocyclic compounds, compositions comprising heterocyclic compound, and methods of use thereof” (JS INNOPHARM (SHANGHAI) LTD, priority 2017, dated 2023).

The IC50 is the midpoint of a concentration-inhibition curve.

For the assay, the target named is T1, TDO2 in A172 cancer cells (Homo sapiens, UniProt P48775).
T1 construct: endogenous in cells; host or cells: A172 cancer cells
T1 sequence (P48775 whole entry): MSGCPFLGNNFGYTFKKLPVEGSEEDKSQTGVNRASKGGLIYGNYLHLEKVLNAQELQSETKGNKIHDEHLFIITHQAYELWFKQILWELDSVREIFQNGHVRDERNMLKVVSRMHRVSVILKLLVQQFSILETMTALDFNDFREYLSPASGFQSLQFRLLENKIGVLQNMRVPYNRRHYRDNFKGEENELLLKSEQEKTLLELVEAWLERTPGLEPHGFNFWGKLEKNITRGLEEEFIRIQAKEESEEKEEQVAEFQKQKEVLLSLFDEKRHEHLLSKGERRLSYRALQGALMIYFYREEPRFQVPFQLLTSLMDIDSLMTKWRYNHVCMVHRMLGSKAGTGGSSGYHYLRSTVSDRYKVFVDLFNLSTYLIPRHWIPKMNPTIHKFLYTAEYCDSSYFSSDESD
The experiment in a line: TDO2 Cellular Assay (kynurenine production in A172 cancer cells). The format is cell-based. Conditions: L-Trp 1 mM, 24 hours incubation, kynurenine at 490 nm. As to the method:
A172 cancer cells (3×10^4 per well) in 85 μL DMEM medium containing 10% FBS were seeded in a 96-well plate and incubated at 95% humidity and 5% CO2 at 37° C. for overnight. On the next day, L-Trp solution (10 μL, 1 mM final concentration) and serial dilutions of the test compounds and DMEM medium resulting in a total final volume of 100 μL each well. The test compounds were dissolved in DMSO and successively diluted with pH7.5 butter (with final DMSO concentration of 0.25%) resulting in final concentrations of the test compounds ranging from 0 to 25 μM (0, 2.5, 7.5, 25, 75, 250, 750, 2500, 7500, & 25000 nM). After 24 hours of incubation, 70 uL of the supernatant per well was transferred to a new 96 well plate. 8 μL of trichloroacetic acid (6.1 N) was mixed into each well and incubated at 50° C. for 30 min to hydrolyze N-formylkynurenine to kynurenine. The reaction mixture was then centrifuged for 10 min at 2500 RPM to remove sediments. 50 μL of the supernatant per well was transferred to another 96 well plate and mixed with 50 μL of 2% (w/v) p-dimethylaminobenzaldehyde in acetic acid. The yellow color derived from kynurenine was measured at 490 nm using a microplate reader. Percent inhibition of the test compounds was determined by measuring the decrease in kynurenine as compared to the control of DMSO vehicle, which was calculated by formula of (WC−WT)/WC, where WC is the mean absorbance of the control well minus blank well; WT is the mean absorbance of the test well minus the blank well. Data was analyzed by GraphPad Prism 5 and the IC50 values were obtained by non-linear regression.
The IC50 values of for Compounds disclosed are listed in Table 2, A′: ≤0.5 μM; B′: >0.5 μM and ≤1 μM; C′: >1.0 μM and ≤5 uM; and D′: >5 μM.
Compound `CC1(C)C2CN(c3cc(Cl)cc4[nH]ncc34)CC2CN1S(C)(=O)=O` (racemic) [Example 1, 6-chloro-4-(4,4-dimethyl-5-(methylsulfonyl)hexahydropyrrolo[3,4-c]pyrrol-2(1H)-yl)-1H-indazole] had an IC50 of no more than 500 nM.

`CS(=O)(=O)N1C[C@@H]2CC(c3cc(Cl)cc4[nH]ncc34)=C[C@@H]2C1` (racemic) [Example 5, Racemic-6-chloro-4-((3aR,6aS)-2-(methylsulfonyl)-1,2,3,3a,4,6a-hexahydrocyclopenta[c]pyrrol-5-yl)-1H-indazole] showed an IC50 of no more than 500 nM.

In turn, `CC1(C)[C@H]2CN(c3cc(Cl)cc4[nH]ncc34)C[C@H]2CN1C(N)=O` (racemic) [Example 31, Racemic-(3aS,6aR)-5-(6-chloro-1H-indazol-4-yl)-1,1-dimethylhexahydropyrrolo[3,4-c]pyrrole-2(1H)-carboxamide] came in with an IC50 of no more than 500 nM.

Consider `CC1(C)[C@H]2CN(c3cc(Cl)cn4cncc34)C[C@H]2CN1S(C)(=O)=O` (racemic) [Example 49, Racemic-6-chloro-8-((3aR,6aS)-4,4-dimethyl-5-(methylsulfonyl)hexahydropyrrolo[3,4-c]pyrrol-2(1H)-yl)imidazo[1,5-a]pyridine], for which the IC50 lay within 1000 to 5000 nM.

`CC1(C)[C@H]2CN(c3c(C(F)(F)F)ccn4cncc34)C[C@H]2CN1S(C)(=O)=O` (racemic) [Example 57, Racemic-8-((3aR,6aS)-4,4-dimethyl-5-(methylsulfonyl)hexahydropyrrolo[3,4-c]pyrrol-2(1H)-yl)-7-(trifluoromethyl)imidazo[1,5-a]pyridine] gave an IC50 greater than 5000 nM.

In the case of `CC(=O)N1C[C@@H]2CN(c3c(C(F)(F)F)ccn4cncc34)C[C@@H]2C1(C)C` (racemic) [Example 58, Racemic-1-((3aS,6aR)-1,1-dimethyl-5-(7-(trifluoromethyl)imidazo[1,5-a]pyridin-8-yl)hexahydropyrrolo[3,4-c]pyrrol-2(1H)-yl)ethanone], the IC50 was greater than 5000 nM.

Regarding `CC(=O)N1C[C@H]2C[C@@H](c3cc(C(F)(F)F)cn4cncc34)C[C@H]2C1` [Example 4, 1-((3aR,5r,6aS)-5-(6-(trifluoromethyl)imidazo[1,5-a]pyridin-8-yl)hexahydrocyclopenta[c]pyrrol-2(1H)-yl)ethanone], the concentration for half-maximal inhibition (IC50) is greater than 5000 nM.

For the compound `CC1(C)C2CN(c3cc(Cl)cc4[nH]ncc34)CC2CN1S(=O)(=O)c1ccc(C#N)cc1` (stereo not drawn) [Example 26, 4-(5-(6-chloro-1H-indazol-4-yl)-1,1-dimethylhexahydropyrrolo[3,4-c]pyrrol-2(1H)-ylsulfonyl)benzonitrile], the IC50 was in the range of 1000 to 5000 nM.

`CC1(C)C2CN(c3cc(Cl)cc4[nH]ncc34)CC2CN1C(=O)C1CC1` (stereo not drawn) [Example 29, (5-(6-chloro-1H-indazol-4-yl)-1,1-dimethylhexahydropyrrolo[3,4-c]pyrrol-2(1H)-yl)(cyclopropyl)methanone] came in with an IC50 of 500 to 1000 nM.

`O[C@@]1(c2cc(Cl)cc3[nH]ncc23)C[C@H]2CCC[C@H]2C1` [Example 30, (2r,3aR,6aS)-2-(6-chloro-1H-indazol-4-yl)octahydropentalen-2-ol] had an IC50 of no more than 500 nM.

Regarding `N#Cc1ccc(S(=O)(=O)N2C[C@H]3CN(c4cc(Cl)cc5[nH]ncc45)C[C@H]3C2)cc1` [Example 33, 4-(((3aR,6aS)-5-(6-chloro-1H-indazol-4-yl)hexahydropyrrolo[3,4-c]pyrrol-2(1H)-yl)sulfonyl)benzonitrile], the IC50 was greater than 5000 nM.

For the compound `N#Cc1ccc(C(=O)N2C[C@@H]3CN(c4cc(Cl)cc5[nH]ncc45)C[C@@H]3C2)cc1` [Example 34, 4-((3aR,6aS)-5-(6-chloro-1H-indazol-4-yl)octahydropyrrolo[3,4-c]pyrrole-2-carbonyl)benzonitrile], the half-inhibitory concentration (IC50) was greater than 5000 nM.

Consider `O=S(=O)(C1CC1)N1C[C@@H]2C[C@@](O)(c3cc(Cl)cc4[nH]ncc34)C[C@@H]2C1` [Example 37, (3aR,5r,6aS)-5-(6-chloro-1H-indazol-4-yl)-2-(cyclopropylsulfonyl)octahydrocyclopenta[c]pyrrol-5-ol], for which the IC50 was no more than 500 nM.

`CC(C)(C)OC(=O)N1C[C@@H]2C[C@@](O)(c3cc(Cl)cc4[nH]ncc34)C[C@@H]2C1` [Example 54, (3aR,5r,6aS)-tert-butyl 5-(6-chloro-1H-indazol-4-yl)-5-hydroxyhexahydrocyclopenta[c]pyrrole-2(1H)-carboxylate] registered an IC50 of no more than 500 nM.

In the case of `O=C(C1CCCC1)N1C[C@@H]2C[C@@](O)(c3cc(Cl)cc4[nH]ncc34)C[C@@H]2C1` [Example 59, ((3aR,5r,6aS)-5-(6-chloro-1H-indazol-4-yl)-5-hydroxyhexahydrocyclopenta[c]pyrrol-2(1H)-yl)(cyclopentyl)methanone], the IC50 is no more than 500 nM.

The compound `O=C(C1CCC1)N1C[C@@H]2C[C@@](O)(c3cc(Cl)cc4[nH]ncc34)C[C@@H]2C1` [Example 60, ((3aR,5r,6aS)-5-(6-chloro-1H-indazol-4-yl)-5-hydroxyhexahydrocyclopenta[c]pyrrol-2(1H)-yl)(cyclobutyl)methanone] came in with an IC50 of no more than 500 nM.

Compound `CC(C)OC(=O)N1C[C@@H]2C[C@@](O)(c3cc(Cl)cc4[nH]ncc34)C[C@@H]2C1` [Example 61, (3aR,5r,6aS)-isopropyl 5-(6-chloro-1H-indazol-4-yl)-5-hydroxyhexahydrocyclopenta[c]pyrrole-2(1H)-carboxylate] registered an IC50 of no more than 500 nM.

Regarding `O=C(C1CCCCC1)N1C[C@@H]2C[C@@](O)(c3cc(Cl)cc4[nH]ncc34)C[C@@H]2C1` [Example 62, ((3aR,5r,6aS)-5-(6-chloro-1H-indazol-4-yl)-5-hydroxyhexahydrocyclopenta[c]pyrrol-2(1H)-yl)(cyclohexyl)methanone], the IC50 was no more than 500 nM.

For `CC(C)C(=O)N1C[C@@H]2C[C@@](O)(c3cc(Cl)cc4[nH]ncc34)C[C@@H]2C1` [Example 65, 1-((3aR,5r,6aS)-5-(6-chloro-1H-indazol-4-yl)-5-hydroxyhexahydrocyclopenta[c]pyrrol-2(1H)-yl)-2-methylpropan-1-one], the IC50 was no more than 500 nM.

For `O=C([C@H]1CC[C@H](O)CC1)N1C[C@@H]2C[C@@](O)(c3cc(Cl)cc4[nH]ncc34)C[C@@H]2C1` [Example 66, ((3aR,5R,6aS)-5-(6-chloro-1H-indazol-4-yl)-5-hydroxyhexahydrocyclopenta[c]pyrrol-2(1H)-yl)((1r,4R)-4-hydroxycyclohexyl)methanone], the IC50 is no more than 500 nM.

`COC(=O)N1C[C@@H]2C[C@@](O)(c3cc(Cl)cc4[nH]ncc34)C[C@@H]2C1` [Example 67, (3aR,5r,6aS)-methyl 5-(6-chloro-1H-indazol-4-yl)-5-hydroxyhexahydrocyclopenta[c]pyrrole-2(1H)-carboxylate] gave an IC50 of no more than 500 nM.

As for `O=C(C1CCOC1)N1C[C@@H]2C[C@@](O)(c3cc(Cl)cc4[nH]ncc34)C[C@@H]2C1` (stereo partly drawn) [Example 68, ((3aR,5r,6aS)-5-(6-chloro-1H-indazol-4-yl)-5-hydroxyhexahydrocyclopenta[c]pyrrol-2(1H)-yl)(tetrahydrofuran-3-yl)methanone], the IC50 was no more than 500 nM.

In turn, `O=C(CC1CC1)N1C[C@@H]2C[C@@](O)(c3cc(Cl)cc4[nH]ncc34)C[C@@H]2C1` [Example 69, 1-((3aR,5r,6aS)-5-(6-chloro-1H-indazol-4-yl)-5-hydroxyhexahydrocyclopenta[c]pyrrol-2(1H)-yl)-2-cyclopropylethanone] gave an IC50 of no more than 500 nM.

As to `CCC(=O)N1C[C@@H]2C[C@@](O)(c3cc(Cl)cc4[nH]ncc34)C[C@@H]2C1` [Example 70, 1-((3aR,5r,6aS)-5-(6-chloro-1H-indazol-4-yl)-5-hydroxyhexahydrocyclopenta[c]pyrrol-2(1H)-yl)propan-1-one], the IC50 was no more than 500 nM.

In turn, `CCS(=O)(=O)N[C@H]1[C@@H]2C[C@@](O)(c3cc(Cl)cc4[nH]ncc34)C[C@@H]21` [Example 71, N-((1R,3r,5S,6r)-3-(6-chloro-1H-indazol-4-yl)-3-hydroxybicyclo[3.1.0]hexan-6-yl)ethanesulfonamide] gave an IC50 of no more than 500 nM.

Compound `O=C(N[C@H]1[C@@H]2C[C@@](O)(c3cc(Cl)cc4[nH]ncc34)C[C@@H]21)C1CCOC1` (stereo partly drawn) [Example 72, N-((1R,3r,5S,6r)-3-(6-chloro-1H-indazol-4-yl)-3-hydroxybicyclo[3.1.0]hexan-6-yl)tetrahydrofuran-3-carboxamide] registered an IC50 of no more than 500 nM.

`O=S(=O)(N[C@H]1[C@@H]2C[C@@](O)(c3cc(Cl)cc4[nH]ncc34)C[C@@H]21)C1CC1` [Example 73, N-((1R,3r,5S,6r)-3-(6-chloro-1H-indazol-4-yl)-3-hydroxybicyclo[3.1.0]hexan-6-yl)cyclopropanesulfonamide] yielded an IC50 of no more than 500 nM.
